Literature values as cited in publication PMC9851200, “Multiparameter phenotypic screening for endogenous TFEB and TFE3 translocation identifies novel chemical series modulating lysosome function” (Autophagy, 2022).

Assays:
Parameters in all cases: method as in original PKIS2 published data
[1] = biological target: T1, kinases (KINOMEscan panel) (Homo sapiens, UniProt O15075); details: Published KINOMEscan; ref original PKIS2 published data; cited from earlier work
T1 sequence (O15075 1-740): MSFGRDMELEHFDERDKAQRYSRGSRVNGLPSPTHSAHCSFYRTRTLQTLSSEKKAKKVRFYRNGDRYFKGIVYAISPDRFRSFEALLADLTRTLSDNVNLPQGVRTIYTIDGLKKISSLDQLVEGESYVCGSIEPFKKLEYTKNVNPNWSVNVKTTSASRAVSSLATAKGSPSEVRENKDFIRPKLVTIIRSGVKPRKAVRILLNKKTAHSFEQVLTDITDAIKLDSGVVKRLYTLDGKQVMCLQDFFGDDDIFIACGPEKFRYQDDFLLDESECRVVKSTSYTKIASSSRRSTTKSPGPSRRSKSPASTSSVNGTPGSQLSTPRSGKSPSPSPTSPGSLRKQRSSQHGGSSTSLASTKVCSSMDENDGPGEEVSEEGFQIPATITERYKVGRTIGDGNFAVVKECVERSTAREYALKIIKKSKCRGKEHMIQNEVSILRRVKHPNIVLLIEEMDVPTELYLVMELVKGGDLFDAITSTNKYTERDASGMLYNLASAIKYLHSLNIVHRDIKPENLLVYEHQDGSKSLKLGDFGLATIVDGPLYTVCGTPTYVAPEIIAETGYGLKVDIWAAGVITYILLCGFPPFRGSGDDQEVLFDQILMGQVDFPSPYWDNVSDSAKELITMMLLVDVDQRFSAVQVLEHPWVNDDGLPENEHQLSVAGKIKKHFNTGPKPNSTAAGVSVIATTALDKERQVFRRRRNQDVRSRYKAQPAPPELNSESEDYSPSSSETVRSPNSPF

[2] = biological target: T2, kinases (KINOMEscan panel) (Homo sapiens, UniProt P35626); details: GRK3; Published KINOMEscan; ref original PKIS2 published data; cited from earlier work
T2 sequence (P35626 1-688): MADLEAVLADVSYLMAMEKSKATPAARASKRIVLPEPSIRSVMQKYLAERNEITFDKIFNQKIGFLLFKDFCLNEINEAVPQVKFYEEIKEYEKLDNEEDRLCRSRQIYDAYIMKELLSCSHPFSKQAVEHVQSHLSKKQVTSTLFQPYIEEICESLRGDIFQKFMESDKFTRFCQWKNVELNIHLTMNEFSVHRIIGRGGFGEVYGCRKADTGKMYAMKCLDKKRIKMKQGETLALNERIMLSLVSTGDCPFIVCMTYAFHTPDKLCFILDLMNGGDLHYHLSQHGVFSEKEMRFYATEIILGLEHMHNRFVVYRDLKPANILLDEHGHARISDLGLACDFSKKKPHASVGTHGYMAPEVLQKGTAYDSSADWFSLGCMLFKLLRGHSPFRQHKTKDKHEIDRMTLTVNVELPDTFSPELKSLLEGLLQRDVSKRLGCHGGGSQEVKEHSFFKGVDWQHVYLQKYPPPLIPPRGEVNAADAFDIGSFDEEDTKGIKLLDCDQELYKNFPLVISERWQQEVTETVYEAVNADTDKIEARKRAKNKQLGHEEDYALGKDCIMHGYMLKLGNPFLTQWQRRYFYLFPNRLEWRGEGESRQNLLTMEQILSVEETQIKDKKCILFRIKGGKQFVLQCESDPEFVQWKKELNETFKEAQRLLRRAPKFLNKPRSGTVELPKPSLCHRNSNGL

[3] = biological target: T3, kinases (KINOMEscan panel) (Homo sapiens, UniProt Q12866); details: kinase MERTK; Published KINOMEscan; ref original PKIS2 published data; cited from earlier work
T3 sequence (Q12866 21-999): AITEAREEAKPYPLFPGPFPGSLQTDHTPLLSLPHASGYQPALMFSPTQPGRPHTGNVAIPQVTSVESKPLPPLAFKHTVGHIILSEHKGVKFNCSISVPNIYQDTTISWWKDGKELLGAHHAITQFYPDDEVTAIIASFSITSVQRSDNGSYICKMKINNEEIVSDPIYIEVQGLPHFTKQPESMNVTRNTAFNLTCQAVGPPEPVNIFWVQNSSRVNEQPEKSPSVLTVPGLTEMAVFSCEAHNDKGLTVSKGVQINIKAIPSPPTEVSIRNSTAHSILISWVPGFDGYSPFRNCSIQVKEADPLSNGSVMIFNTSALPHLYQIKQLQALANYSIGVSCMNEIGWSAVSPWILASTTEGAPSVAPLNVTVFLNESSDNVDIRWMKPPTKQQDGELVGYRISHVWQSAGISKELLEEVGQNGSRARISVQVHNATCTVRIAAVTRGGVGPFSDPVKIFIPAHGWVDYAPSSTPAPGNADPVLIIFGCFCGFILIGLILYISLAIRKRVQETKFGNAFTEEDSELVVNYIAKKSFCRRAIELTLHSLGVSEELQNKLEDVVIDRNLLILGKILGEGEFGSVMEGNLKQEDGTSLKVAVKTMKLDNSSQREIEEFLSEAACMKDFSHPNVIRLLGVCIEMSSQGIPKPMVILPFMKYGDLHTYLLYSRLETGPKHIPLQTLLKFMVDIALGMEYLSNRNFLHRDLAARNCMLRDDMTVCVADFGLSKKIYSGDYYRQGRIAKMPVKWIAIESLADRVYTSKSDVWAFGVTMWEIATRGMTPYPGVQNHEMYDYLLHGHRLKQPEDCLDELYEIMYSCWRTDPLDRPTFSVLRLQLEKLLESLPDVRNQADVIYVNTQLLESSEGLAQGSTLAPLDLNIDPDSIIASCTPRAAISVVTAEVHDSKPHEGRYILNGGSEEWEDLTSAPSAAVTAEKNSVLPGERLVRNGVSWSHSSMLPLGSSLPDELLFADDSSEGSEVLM

Cc1cccc(-c2nc(Nc3ccncc3)c3ccccc3n2)n1 [NK215]
KINOMEscan DCLK1 [1]: 14 | KINOMEscan GRK3 [2]: 0 | KINOMEscan MERTK [3]: 9
